Patent publication US7332501B2, “Indol-3-yl-carbonyl-spiro-piperidine derivatives as V1a receptor antagonists” (Hoffmann-La Roche Inc., priority 2005, dated 2008)
Where a name gives a salt, the structure may show the parent alone.

These molecules were tested against T1, human V1a receptor (Homo sapiens, UniProt P37288) (assay: human V1a receptor binding (3H-Vasopressin SPA, HEK293 membranes)). Conditions: displacement of 4 nM 3H-Vasopressin, membranes of HEK293 cells transiently transfected with human V1a receptor; Ki from IC50 by Cheng-Prussoff.
T1 construct: expressed in transfected cells; host or cells: HEK293 cells, transiently transfected; cell membranes
Method in brief: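 Transiently transfected HEK293 membranes on yttrium silicate SPA beads in Tris binding buffer (120 mM NaCl, 5 mM KCl, 2 mM CaCl2, 10 mM MgCl2). 3H-vasopressin added as 4 nM working solution; excess cold vasopressin set non-specific binding. 1 h at room temperature, then counting; Ki from fitted IC50 via Cheng-Prusoff.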

T1 sequence (P37288 whole entry): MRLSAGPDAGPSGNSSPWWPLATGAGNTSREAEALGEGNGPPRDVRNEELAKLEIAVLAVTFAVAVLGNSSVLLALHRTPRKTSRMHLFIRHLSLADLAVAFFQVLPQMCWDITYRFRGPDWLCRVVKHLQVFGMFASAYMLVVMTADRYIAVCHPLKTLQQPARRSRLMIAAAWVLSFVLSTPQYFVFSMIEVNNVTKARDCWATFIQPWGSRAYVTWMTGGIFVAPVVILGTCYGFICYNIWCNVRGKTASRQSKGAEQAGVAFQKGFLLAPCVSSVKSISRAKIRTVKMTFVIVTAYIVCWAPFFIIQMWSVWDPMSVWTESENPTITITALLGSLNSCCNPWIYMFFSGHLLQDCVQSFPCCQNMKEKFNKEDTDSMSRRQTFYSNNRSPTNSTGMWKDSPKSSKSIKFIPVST

| Ki | Compound |
| --- | --- |
| 5.8 nM | CN(CCNC(=O)c1[nH]c2cc(Cl)ccc2c1C(=O)N1CCC2(CC1)OC(=O)c1cc(F)ccc12)C(=O)OC(C)(C)C [Example 30, tert-butyl {2-[({6-chloro-3-[(5-fluoro-3-oxo-1′H,3H-spiro[2-benzofuran-1,4′-piperidin]-1′-yl)carbonyl]-1H-indol-2-yl}carbonyl)amino]ethyl}methylcarbamate] |
| 10.1 nM | CN(C)C(=O)c1[nH]c2cc(Cl)ccc2c1C(=O)N1CCC2(CC1)OC(=O)c1cc(F)ccc12 [Example 29, 6-chloro-3-[(5-fluoro-3-oxo-1′H,3H-spiro[2-benzofuran-1,4′-piperidin]-1′-yl)carbonyl]-N,N-dimethyl-1H-indole-2-carboxamide] |
| 1.3 nM | CC(=O)NCCn1cc(C(=O)N2CCC3(CC2)OCc2ccccc23)c2ccc(Cl)cc21 [Example 270, N-{2-[6-Chloro-3-(1′H,3H-spiro[2-benzofuran-1,4′-piperidin]-1′-ylcarbonyl)-1H-indol-1-yl]ethyl}acetamide] |
| 3 nM | O=C1OC2(CCN(C(=O)c3cn(CCc4ccncc4)c4cc(Cl)ccc34)CC2)c2ccc(F)cc21 [Example 167, 1′-{[6-Chloro-1-(2-pyridin-4-ylethyl)-1H-indol-3-yl]carbonyl}-5-fluoro-3H-spiro[2-benzofuran-1,4′-piperidin]-3-one] |
| 1.3 nM | CN1CCN(C(=O)Cn2cc(C(=O)N3CCC4(CC3)OC(=O)c3cc(F)ccc34)c3ccc(Cl)cc32)CC1 [Example 114, 1′-({6-Chloro-1-[2-(4-methylpiperazin-1-yl)-2-oxoethyl]-1H-indol-3-yl}carbonyl)-5-fluoro-3H-spiro[2-benzofuran-1,4′-piperidin]-3-one] |
| 1.1 nM | CCN(CC)C(=O)Cn1cc(C(=O)N2CCC3(CC2)OCc2ccccc23)c2ccc(Cl)cc21 [Example 207, 2-[6-Chloro-3-(1′H,3H-spiro[2-benzofuran-1,4′-piperidin]-1′-ylcarbonyl)-1H-indol-1-yl]-N,N-diethylacetamide] |
| 2.8 nM | Cc1cc(Cn2cc(C(=O)N3CCC4(CC3)OCc3ccccc34)c3ccc(Cl)cc32)ccn1 [Example 260, 1′-({6-Chloro-1-[(2-methylpyridin-4-yl)methyl]-1H-indol-3-yl}carbonyl)-3H-spiro[2-benzofuran-1,4′-piperidine]] |
| 1.2 nM | O=C(c1cn(Cc2cc(F)cc(F)c2)c2cc(Cl)ccc12)N1CCC2(CC1)OCc1ccccc12 [Example 219] |
| 3.3 nM | O=C1OC2(CCN(C(=O)c3cn(CC4CNCCO4)c4cc(Cl)ccc34)CC2)c2ccccc21 (stereo not shown) [Example 198, 1′-{[6-Chloro-1-(morpholin-2-ylmethyl)-1H-indol-3-yl]carbonyl}-3H-spiro[2-benzofuran-1,4′-piperidin]-3-one hydrochloride] |
| 6.9 nM | O=C1OC2(CCN(C(=O)c3cn(CC4CN(Cc5ccccc5)CCO4)c4cc(Cl)ccc34)CC2)c2ccc(F)cc21 (stereo not shown) [Example 177, 1′-({1-[(4-Benzylmorpholin-2-yl)methyl]-6-chloro-1H-indol-3-yl}carbonyl)-5-fluoro-3H-spiro[2-benzofuran-1,4′-piperidin]-3-one] |
| 5 nM | O=C1OC2(CCN(C(=O)c3cn(-c4cccc(F)c4)c4cc(Cl)ccc34)CC2)c2ccccc21 [Example 155, 1′-{[6-Chloro-1-(3-fluorophenyl)-1H-indol-3-yl]carbonyl}-3H-spiro[2-benzofuran-1,4′-piperidin]-3-one] |
| 1.1 nM | CC(C)(C)OC(=O)Cn1cc(C(=O)N2CCC3(CC2)OC(=O)c2ccccc23)c2ccc(Cl)cc21 [Example 109, tert-Butyl {6-chloro-3-[(3-oxo-1′H,3H-spiro[2-benzofuran-1,4′-piperidin]-1′-yl)carbonyl]-1H-indol-1-yl}acetate] |
| 5.2 nM | Cc1[nH]c2cc(Cl)ccc2c1C(=O)N1CCC2(CC1)OCc1ccccc12 [Example 277, 1′-[(6-Chloro-2-methyl-1H-indol-3-yl)carbonyl]-3H-spiro[2-benzofuran-1,4′-piperidine]] |

| Compound | Ki |
| --- | --- |
| N#CCC1(Cn2cc(C(=O)N3CCC4(CC3)OCc3ccccc34)c3ccc(Cl)cc32)CC1 [Example 245, (1-{[6-Chloro-3-(1′H,3H-spiro[2-benzofuran-1,4′-piperidin]-1′-ylcarbonyl) -1H-indol-1-yl]methyl}cyclopropyl)acetonitrile] | 1.7 nM |
| CN1CCN(C(=O)Cn2cc(C(=O)N3CCC4(CC3)OCc3ccccc34)c3ccc(Cl)cc32)CC1 [Example 212, 1′-({6-Chloro-1-[2-(4-methylpiperazin-1-yl)-2-oxoethyl]-1H-indol-3-yl}carbonyl)-3H-spiro[2-benzofuran-1,4′-piperidine]] | 1.2 nM |
| COc1ccc(Cn2c(C)c(C(=O)N3CCC4(CC3)OCc3ccccc34)c3ccccc32)cc1 [Example 55, 1′-{[1-(4-methoxybenzyl)-2-methyl-1H-indol-3-yl]carbonyl}-3H-spiro[2-benzofuran-1,4′-piperidine]] | 7.9 nM |
| O=C(c1cn(Cc2cccc(F)c2)c2cc(Cl)ccc12)N1CCC2(CC1)CNc1ccccc12 [Example 94] | 4.1 nM |
| O=C1OC2(CCN(C(=O)c3cn(Cc4cccc(F)c4)c4cc(Cl)ccc34)CC2)c2ccccc21 [Example 134, 1′-{[6-Chloro-1-(3-fluorobenzyl)-1H-indol-3-yl]carbonyl}-3H-spiro[2-benzofuran-1,4′-piperidin]-3-one] | 1 nM |
| O=C1OC2(CCN(C(=O)c3cn(Cc4cc(F)cc(F)c4)c4ccccc34)CC2)c2ccc(F)cc21 [Example 201, 1′-{[1-(3,5-Difluorobenzyl)-1H-indol-3-yl]carbonyl}-5-fluoro-3H-spiro[2-benzofuran-1,4′-piperidin]-3-one] | 4.6 nM |
| CN1CCC(Cn2cc(C(=O)N3CCC4(CC3)OCc3ccccc34)c3ccc(Cl)cc32)C1 (stereo not shown) [Example 264, 1′-({6-Chloro-1-[(1-methylpyrrolidin-3-yl)methyl]-1H-indol-3-yl}carbonyl)-3H-spiro[2-benzofuran-1,4′-piperidine]] | 1.8 nM |
| CN1CCC[C@H](Cn2cc(C(=O)N3CCC4(CC3)OCc3ccccc34)c3ccc(Cl)cc32)C1 [Example 265, 1′-[(6-Chloro-1-{[(3S)-1-methylpiperidin-3-yl]methyl}-1H-indol-3-yl)carbonyl]-3H-spiro[2-benzofuran-1,4′-piperidine]] | 1.4 nM |
| Cc1cc(Cn2cc(C(=O)N3CCC4(CC3)OCc3ccccc34)c3ccc(Cl)cc32)no1 [Example 236, 1′-({6-Chloro-1-[(5-methylisoxazol-3-yl)methyl]-1H-indol-3-yl}carbonyl)-3H-spiro[2-benzofuran-1,4′-piperidine]] | 1.7 nM |
| Cc1c(C(=O)N2CCC3(CC2)OC(=O)c2ccccc23)c2ccccc2n1Cc1ccccc1 [Example 126, 1′-[(1-Benzyl-2-methyl-1H-indol-3-yl)carbonyl]-3H-spiro[2-benzofuran-1,4′-piperidin]-3-one] | 3 nM |
| O=C1OC2(CCN(C(=O)c3cn(Cc4cccc(F)c4)c4cc(Cl)ccc34)CC2)c2ccc(F)cc21 [Example 143, 1′-{[6-Chloro-1-(3-fluorobenzyl)-1H-indol-3-yl]carbonyl}-5-fluoro-3H-spiro[2-benzofuran-1,4′-piperidin]-3-one] | 1 nM |
| O=C1OC2(CCN(C(=O)c3cn(Cc4cc(F)cc(F)c4)c4cc(Cl)ccc34)CC2)c2ccc(F)cc21 [Example 142, 1′-{[6-Chloro-1-(3,5-difluorobenzyl)-1H-indol-3-yl]carbonyl}-5-fluoro-3H-spiro[2-benzofuran-1,4′-piperidin]-3-one] | 0.6 nM |
